pIC50: −log10 of the molar value.
Legend:
[1] = target: T1, FAAH (Mus musculus, UniProt O08914); experiment: In vivo FAAH inhibition, liver, after oral administration to mice
T1 sequence (O08914 1-579): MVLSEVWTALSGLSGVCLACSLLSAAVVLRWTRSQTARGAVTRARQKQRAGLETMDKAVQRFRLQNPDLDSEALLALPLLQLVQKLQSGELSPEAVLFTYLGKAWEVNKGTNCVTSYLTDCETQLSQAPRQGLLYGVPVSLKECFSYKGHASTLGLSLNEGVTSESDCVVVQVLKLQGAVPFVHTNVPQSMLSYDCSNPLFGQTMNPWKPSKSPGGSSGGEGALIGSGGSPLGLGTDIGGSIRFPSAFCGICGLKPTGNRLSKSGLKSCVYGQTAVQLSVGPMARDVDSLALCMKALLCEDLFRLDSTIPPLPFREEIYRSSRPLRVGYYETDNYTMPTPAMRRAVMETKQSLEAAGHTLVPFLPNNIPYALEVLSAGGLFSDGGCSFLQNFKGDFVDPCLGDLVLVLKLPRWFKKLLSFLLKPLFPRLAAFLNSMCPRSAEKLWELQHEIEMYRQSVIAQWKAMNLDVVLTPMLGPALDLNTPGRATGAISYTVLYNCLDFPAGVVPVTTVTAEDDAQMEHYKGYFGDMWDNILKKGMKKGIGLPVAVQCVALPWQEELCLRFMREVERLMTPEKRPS

[2] = system: carboxylesterases (CEs); experiment: CE activity in rat liver microsomes; format: biochemical; details: for CEs (10 μM), percent of control: 10 μM in rat liver microsomes; for CEs activity, percent of control: C inhib=10 μM in rat liver microsomes, Table 2
[3] = target: T2, MAGL (Rattus norvegicus, UniProt Q8R431); experiment: MAGL activity in rat cerebellum cytosol; format: biochemical; details: for MAGL activity, percent of control / MAGL (100 μM), percent of control: C inhib=100 μM in rat cerebellum cytosol; for MAGL activity, percent of control: Table 2
T2 sequence (Q8R431 1-303): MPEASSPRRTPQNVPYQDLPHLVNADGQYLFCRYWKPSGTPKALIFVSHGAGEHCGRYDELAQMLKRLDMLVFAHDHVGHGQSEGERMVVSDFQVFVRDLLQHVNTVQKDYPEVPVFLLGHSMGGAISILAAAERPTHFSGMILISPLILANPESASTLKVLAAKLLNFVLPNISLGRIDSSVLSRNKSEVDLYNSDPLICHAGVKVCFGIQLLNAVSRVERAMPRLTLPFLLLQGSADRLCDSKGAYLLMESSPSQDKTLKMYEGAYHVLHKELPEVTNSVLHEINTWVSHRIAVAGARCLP

[4] = system: FAAH; details: read-out: FAAH IC50 (in vitro potency); cited from earlier work
[5] = target: T1, FAAH; experiment: In vivo FAAH inhibition, brain, after oral administration to mice
[6] = target: T3, FAAH (Rattus norvegicus, UniProt P97612); experiment: In vitro FAAH activity in rat brain homogenates/membranes; format: biochemical; details: rat brain homogenates, 15 min pre-incubation
T3 sequence (P97612 1-579): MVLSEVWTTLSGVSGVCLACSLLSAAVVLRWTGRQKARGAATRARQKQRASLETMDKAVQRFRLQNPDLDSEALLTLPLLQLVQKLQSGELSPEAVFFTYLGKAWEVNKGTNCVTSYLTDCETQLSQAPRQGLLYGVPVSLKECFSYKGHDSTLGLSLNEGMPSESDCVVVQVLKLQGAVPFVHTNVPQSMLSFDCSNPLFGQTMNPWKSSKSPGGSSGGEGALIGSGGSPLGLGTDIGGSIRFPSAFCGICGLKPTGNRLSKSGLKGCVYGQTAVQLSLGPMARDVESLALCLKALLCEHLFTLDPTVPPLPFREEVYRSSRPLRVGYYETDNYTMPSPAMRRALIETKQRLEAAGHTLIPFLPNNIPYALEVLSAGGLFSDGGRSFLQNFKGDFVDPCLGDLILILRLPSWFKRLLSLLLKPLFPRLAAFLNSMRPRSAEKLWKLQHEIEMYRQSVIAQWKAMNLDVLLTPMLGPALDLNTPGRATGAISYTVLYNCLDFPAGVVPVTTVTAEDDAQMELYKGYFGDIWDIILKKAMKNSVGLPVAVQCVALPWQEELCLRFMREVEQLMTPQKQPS

[7] = CYP450 metabolic stability, mouse liver microsomes; format: in vitro ADME; details: 5 μM in liver microsomes, 1 h incubation
[8] = CYP450 metabolic stability, rat liver microsomes; format: in vitro ADME; details: 5 μM in liver microsomes, 1 h incubation
[9] = CYP450 metabolic stability, dog liver microsomes; format: in vitro ADME; details: 5 μM in liver microsomes, 1 h incubation
[10] = CYP450 metabolic stability, primate liver microsomes; format: in vitro ADME; details: 5 μM in liver microsomes, 1 h incubation
[11] = CYP450 metabolic stability, human liver microsomes; format: in vitro ADME; details: 5 μM in liver microsomes, 1 h incubation
[12] = 0.1 mg kg^−1 p.o. in mice, 8 h after administration, Table 4
[13] = 30 mg kg^−1 p.o. in mice, 1 h after administration, Table 2
[14] = 0.1 mg kg^−1, mouse, p.o., text b31
[15] = 0.1 mg kg^−1 p.o. in mice, 8 h after administration, Table 5
[16] = 0.1 mg kg^−1 p.o., mice, post-dose

NC(=O)c1cccc(-c2cccc(OC(=O)NC3CCCCC3)c2)c1 [Compound 2, URB597, reference compound]
Liver FAAH activity, percent of control [1, 12]: 74±20% of control
Liver FAAH activity, percent of control [1, 13]: 6±1% of control
inhibition at 30 mg/kg ([1]; mouse, po, read-out: FAAH inhibition in the liver): > 90%
CEs (10 μM), percent of control ([2]; Table 4): 72±5% of control
CEs activity, percent of control [2]: 72±5% of control
MAGL activity, percent of control [3]: 87±4% of control
MAGL (100 μM), percent of control ([3]; Table 4): 87±4% of control
Brain FAAH activity, percent of control [5, 12]: 91±7% of control
Brain FAAH activity, percent of control [5, 13]: 9±2% of control
FAAH inhibition in the brain ([5]; 30 mg kg^−1 p.o., mice, 1 h post-administration): over 90%

CN(C(=O)n1cnc(-c2ccccc2)c1)C1CCN(Cc2ccccc2)CC1 [Compound 8 h]
FAAH activity, percent of control, 100 nM ([6]; Table 5): 41±7% of control
in vivo FAAH inhibitory activity, liver [1, 14]: > 90 % of control
Liver FAAH activity, percent of control [1, 15]: 10±2% of control
time of maximum inhibitory effect in the liver [1, 16]: 1 h
ED50 ([1]; mouse, po, 8 h, read-out: ED50 liver FAAH): 0.028 mg/kg
inhibition at 0.1 mg/kg ([1]; mouse, po, read-out: peripheral (liver) FAAH inhibition): > 90%
CEs (10 μM), percent of control ([2]; Table 5): 97±8% of control
selectivity over CEs ([2]; text b31): > 80 % of control
MAGL (100 μM), percent of control ([3]; Table 5): 92±8% of control
selectivity over MAGL ([3]; text b31): > 80 % of control
CYP450 metabolic stability, Mouse, percent of remaining [7]: 62±0% of remaining
CYP450 metabolic stability, Rat, percent of remaining [8]: 88±6% of remaining
CYP450 metabolic stability, Dog, percent of remaining [9]: 54±0% of remaining
CYP450 metabolic stability, Primate, percent of remaining [10]: 41±3% of remaining
CYP450 metabolic stability, Human, percent of remaining [11]: 75±4% of remaining
cerebral (brain) FAAH inhibition ([5]; 0.1 mg kg^−1, mouse, p.o., 8 h post-dose): over 90%
in vivo FAAH inhibitory activity, brain [5, 14]: > 90 % of control
Brain FAAH activity, percent of control [5, 15]: 11±4% of control
time of maximal inhibitory effect in the brain (t max) [5, 16]: 8 h
central FAAH inhibition maintained up to 48 h post-administration ([5]; 0.1 mg kg^−1 p.o., mice, up to 48 h): > 50%
ED50 cerebral FAAH ([5]; mice, p.o., 0.001 to 3 mg kg^−1, 8 h post-administration): approximately 79 μg kg^−1

Cl.O=C(N1CCN(Cc2ccccc2)CC1)n1nnc2ccccc21 [Compound 10 i]
FAAH activity, percent of control, 10 nM ([6]; Table 2): 0±0% of control
FAAH activity, percent of control, 100 nM ([6]; Table 2): 0±0% of control
Liver FAAH activity, percent of control [1, 13]: 15±4% of control
CEs activity, percent of control [2]: 27±1% of control
MAGL activity, percent of control [3]: 7±4% of control
Brain FAAH activity, percent of control [5, 13]: 20±5% of control

O=C(N1CCN(c2ccccc2)CC1)n1nnc2ccccc21 [Compound 10 j]
FAAH activity, percent of control, 10 nM ([6]; Table 2): 1±0% of control
FAAH activity, percent of control, 100 nM ([6]; Table 2): 0±0% of control
Liver FAAH activity, percent of control [1, 13]: 30±5% of control
CEs activity, percent of control [2]: 28±2% of control
MAGL activity, percent of control [3]: 12±4% of control
Brain FAAH activity, percent of control [5, 13]: 88±7% of control
